According to US7846483B2, “Cosmetic composition for skin application suitable for relaxing expression wrinkles” (Labo Cosprophar AG, priority 2004, dated 2010):
Where no end group is shown, it is not given here.

How the values were obtained:
[1] = test system: endoplasmic reticulum vesicles; test: Outflow of calcium ions from endoplasmic reticulum vesicles versus external magnesium ion concentration; type: biochemical; settings: with an increase in the concentration of Mg++ in the medium (FIG. 2)
Procedure: In particular, the dependence of the flow at the outlet of the calcium ions on the external concentration of magnesium ions was evaluated. The results obtained are shown in the graph of FIG. 2.

[2] = test system: nerve-muscle co-culture model; test: Contraction frequency in a nerve-muscle co-culture model with acetyl Dipeptide-1 cetyl ester; type: cell-based; settings: for contraction inhibition: 0.9%
Procedure: The decontracting efficacy was evaluated, of dipeptide N-acetyl tyrosyl-arginyl (Dipeptide) hexadecyl ester, dissolved in a hydro-glycol excipients.
• 1. […] Evaluation of the contraction frequency in a nerve-muscle co-culture model in incubation with acetyl Dipeptide-1 cetyl ester at 0.9% for 5 minutes and 2 h.

POMC gene = test: Gene expression of the POMC gene in a culture of human keratinocytes; type: cell-based; settings: human keratinocytes incubated for 24 h
CGRP = CGRP synthesis in a culture of neurons; type: cell-based; settings: neurons incubated for 6 hours
[3] = test system: nerve-muscle co-culture model; test: In vitro efficacy test on pentapeptide: contraction frequency in a nerve-muscle co-culture model; type: cell-based; settings: 0.3% by weight, contractions counted over 30 sec
Procedure: In vitro efficacy test on pentapeptide
The frequency of the contractions was determined in a nerve-muscle co-culture model to evaluate the decontracting capacity of pentapeptide gly-pro-arg-pro -ala-NH2 SEQ ID NO 1, used at a concentration of 0.3% by weight.

Magnesium ions
quantity of Calcium ions released from the endoplasmic reticulum vesicles [1]: decreases

N-acetyl tyrosyl-arginyl (Dipeptide) hexadecyl ester [acetyl Dipeptide-1 cetyl ester]
contraction inhibition ([2]; after 5 minutes of incubation, 1 fiber out of 3): higher than 20% | contraction inhibition ([2]; after 2 hours of incubation, all 3 fibers): 100% | over-expression of the POMC gene with respect to the reference (POMC gene; 0.9%): > +29% | over-expression of the POMC gene with respect to the reference (POMC gene; 1.9%): > +63% | reduction in the CGRP synthesis with respect to the reference (CGRP; 2.8%): −0% | reduction in the CGRP synthesis with respect to the reference (CGRP; 4.7%): −50%

gly-pro-arg-pro-ala-NH2 (GPRPA-NH2) [pentapeptide]
average reduction in the contraction frequency ([3]; after 1 minute of incubation): 69.75% | average reduction in the contraction frequency ([3]; after 2 hours of incubation): 60.75%

α-bungarotoxin [reference compound]
DECREASE IN THE MUSCULAR FIBER CONTRACTION, Positive reference (α-bungarotoxin) [2]: Blockage
